Data: paper PMC7504721, “Targeting the Initiator Protease of the Classical Pathway of Complement Using Fragment-Based Drug Discovery” (Molecules, 2020)
Like-named read-outs stand apart in the source and are kept apart here.

Test system: classical pathway
Assay: Classical pathway-specific ELISA-based complement inhibition assay (C4b deposition, IgM-coated plate, human serum)
Assay type: biochemical
Settings: for IC50: non-linear regression; for inhibition of classical pathway (C4b deposition) relative to non-binding control compound: single 500 µM concentration, triplicate, 1% normal human serum, unpaired t-test p < 0.05
Method: To carry out classical pathway ELISA-based inhibition assays, IgM was dissolved in coating buffer (100 mM Na2CO3/NaHCO3, pH 9.6) to a final concentration of 3 µg/mL and was dispensed into 96-well plates at 100 µL per well. Mannan was dissolved to 2 µg/mL and lipopolysaccharides (LPS) were dissolved to 10 µg/mL in coating buffer for use in lectin and alternative pathway inhibition assays, respectively. Immobilization was allowed to proceed overnight at 25 °C. The immobilization reagent was then removed, followed by three washes in washing buffer (50 mM Tris pH 8.0, 200 mM NaCl, 0.05% (v/v) Tween-20), and blocked using 100 µL of 1% (w/v) bovine serum albumin in PBS-T for 1 h at 37°C. Blocking buffer was removed and plates were washed three times in washing buffer. Next, 500 µM of each compound, 5% (v/v) DMSO, and 1% (v/v) normal human serum (Innovative Research) (final concentrations) were dissolved in classical/lectin pathway ELISA buffer (20 mM HEPES (pH 7.3), 0.1% (w/v) gelatin, 140 mM NaCl, 2 mM CaCl2, 0.5 mM MgCl2) and added to the IgM-coated plate for 1 h at 37 °C. For the lectin pathway-specific ELISAs shown in Figure 5D, we used C1q-depleted serum from CompTech at 2% (v/v) and thus the classical pathway assays for this analysis were also performed using serum from CompTech at 2% (v/v). For the alternative pathway, 20% (v/v) normal human serum (CompTech) (final concentration) and alternative pathway ELISA buffer (20 mM HEPES, (pH 7.5), 0.1% (w/v) gelatin, 140 mM NaCl, 2 mM CaCl2, 0.5 mM MgCl2) were used in place of classical/lectin pathway ELISA buffer. Plates were then washed three times in wash buffer and each well was filled with 100 µL of α-C4 (HYB 162-02, Santa Cruz Biotechnology) diluted 1:300 for classical and lectin pathway assays and 100 µL of C3b (WM-1, Sigma) diluted 1:300 for alternative pathway assays. Plates were again incubated at 37 °C for 1 h, washed three times, filled with 100 µL of HRP-conjugated goat-α-mouse secondary antibody (diluted 1:3000) (Thermo Scientific, Waltham, MA, USA), and rocked gently for 1 h at 25 °C. After three more washes, 50 µl of substrate (1-step Ultra TMB, Thermo Scientific, Waltham, MA, USA) was added to each well and rocked for 15 min in the dark at 25 °C. The reaction was stopped with 50 µL of 0.16 M sulfuric acid, and the plate was read at 450 nm using an EnSight multimode plate reader (Perkin-Elmer). Each column contained a positive control for full complement activity (5% (v/v) blank DMSO with 1% (v/v) serum) and a negative control for no complement activity (5% (v/v) blank DMSO and no serum). Positive controls (1% (v/v) serum, no inhibitor) were defined as 100% C4b or C3b signal whereas negative controls (no serum) were defined as 0% C4b or C3b signal for each column. Compounds that inhibited complement deposition relative to the control were then evaluated using the same assay setup across a two-fold variable concentration series for each compound (7.8–500 µM). […] All experiments were performed no less than three times.
Statistical analyses were performed using GraphPad Prism version 8. For complement inhibition assays, measures of statistical significance for single-dose experiments were assessed using unpaired Student’s t-tests compared to no inhibitor controls (pathway ELISAs) or non-binding control compounds (classical pathway ELISA). Statistical significance was defined as p < 0.05. Calculation of IC50 values from dose-dependent complement assays were obtained by non-linear regression analysis using a using an inhibitor vs. response model and with 95% confidence intervals reported. For non-linear regression analyses, the top and bottom of each curve were constrained to 100 and 0, respectively.

[1] = dose-response 7.8–500 µM, top and bottom constrained to 100 and 0, read-out: IC50, classical pathway-specific ELISA
[2] = n = 9 (CMP-1611), n = 7 (CMP-1696), read-out: 95% confidence interval of IC50, classical pathway-specific ELISA

Row | IC50 [1] | IC50 [2] | SMILES | inhibition of classical pathway (C4b deposition) relative to non-binding control compound
1 | 660 µM | 560 to 790 µM | CN(C)c1cc(N2CCCC(N)C2)ncn1 (stereo not drawn) [CMP-1611] | statistically significant inhibitory activity
2 | 520 µM | 410 to 680 µM | COCc1nc(-c2ccc(OC3CNC3)cc2)no1 [CMP-1696] | statistically significant inhibitory activity
